Like-named read-outs stand apart in the source and are kept apart here.
Columns and labels:
neutrophils = experiment: phagokinetic activity of neutrophils on gold sol-coated plates; type: cell-based, human; conditions: for activity at 4.5 µM / activity at 12 µM: Homo sapiens, Neutrophil; for activity at 4.5 µM: 2 h, read-out: Area Swept; for activity at 12 µM: read-out: Area Swept (recovery of phagokinetic activity)
Description: The phagokinetic activity of neutrophils on gold sol-coated plates can be determined by a technique essentially as taught in Albrecht-Buehler (Cell, 11, 395, 1977). […] Thus, the inhibitory effect of TMS on phagokinetic activity is not dependent on cytotoxicity.
.sctn. The area swept by neutrophils was determined in photographs of the
monolayers. The regions cleared by neutrophil movement were then cut out
Phagokinetic activity was observed by tracing tracks of neutrophils moving on a glass substrate covered with gold colloid particles. The technique was described originally by Albrecht-Buehler, supra, using 3T3 and other cell lines. Briefly, 22×22 mm square glass coverslips (Corning Glass Works, Corning, N.Y.) were dipped for 1 min into 1% BSA prepared in Milli Q water. The BSA solution was prepared fresh each day and passed through 0.20 μm Nalgene filters (Nalgene Labware Division, Rochester, N.Y.).
The coverslip then was drained by touching a Kim-wipe paper towel to its edge, dipped into 100% ethanol and rapidly and completely dried in a 85° C. hot airstream. The coverslip was placed in a 3.5 cm Falcon plastic dish. Then 5.4 ml of AuCl4 H and 18 ml of 36.5 mM Na2 CO3 were added to 33 ml of distilled water and heated. Immediately after reaching the boiling point, 5.4 ml of 0.1% formaldehyde in water were added quickly and mixed. The suspension of gold particles forming a brownish color was distributed immediately onto the dish (2 ml each) and the coverslip was incubated for 2 hr at 37° C.
Particle-coated coverslips were washed in PBS, then twice in RPMI 1640 and finally put in another 3.5 cm Falcon plastic dish containing 2 ml of RPMI 1640 with glutamate and pyruvate. The coverslips were stored at 4° C. and used within 24 hr after preparation.
The freshly-purified neutrophils (1×10^4 cells/plate) were added onto the colloid-coated coverslip. TMS and other effectors were added into the medium on the plate. As a control, the solvent of the effectors (50% ethanol) was added at an equal amount. At that concentration (0.1%), ethanol brought no significant effect on neutrophil activities. To observe cell recovery from exposure to the effectors, neutrophils (2×10^5 cells/ml) were pre-incubated at 37° C. with 12 μM of TMS, SPN and DMS, then distributed to the dish dropwise, diluting the effectors 200-fold. Incubation was conducted under 5% CO2 at 37° C. for 2 hr and terminated by adding 200 μl of 10% formaldehyde. Microscopic examination of each plate was performed with a Nikon microscope, connected to a Polaroid camera for recordings. Phagokinetic activity was measured by tracing the track of a neutrophil. The track was recorded with photographs, then the area was measured by cutting and weighing there swept area.

HL60 cells = experiment: HL60 cell binding to activated platelets; type: cell-based, human; conditions: thrombin- and PMA-stimulated platelets
Description: FIGS. 12A and 12B depict results of representative experiments assessing the degree of HL60 binding to platelets. Platelets were exposed to inhibiting compounds (symbols are the same as in the legend to FIGS. 11A and 11B) and affixed to the wells of a microtiter plate. HL60 cells labelled with tritiated thymidine were introduced into the wells and the amount of bound radioactivity was assessed.
HL60 (a human promylelocytic cell line available from the ATCC under accession number CCL 240) adhesion on resting or activated platelet-coatedsolid phase was evaluated as follows. Each well of a 48-well plate (Costar Scientific, Cambridge, Mass.) was filled with a poly-L-lysine solution (100 μg/ml in PBS) and incubated for 1 hour. Each well then was washed with PBS and then 150 μl of PBS containing 6×10^7 resting or activated platelets were added to each well and the plate was incubated for 1 hour. Plates were centrifuged (300×g for 7 minutes) and incubated a further 30 minutes at room temperature. Bound platelets were fixed by addition of 0.1% (w/v) glutaraldehyde in PBS for 2 minutes at 4° C. Each well was washed with 10 mM glycine in PBS and plates were incubated with 5% (w/v) BSA containing 0.1% (w/v) sodium azide, 10 mM glycine in PBS for 1 hour at room temperature.
After washing with culture medium (RPMI 1640 containing 5% (v/v) FCS), 1×10^6 HL60 cells labeled with [^3 H]thymidine were added to each well. HL60 was maintained in RPMI 1640 medium (purchased from Irvine Scientific, Santa Ana, Calif.) supplemented with 10% FCS (Hyclone, Logan, Utah). (Radiolabeling of HL60 cells used for cell adhesion assays was performed by incubating cells with 2 μCi/ml of [^3 H]thymidine overnight.) After incubation for 45 minutes at room temperature, unbound cells were aspirated and wells were washed once with medium (RPMI 1640 containing 5% (v/v) FCS), bound cells were detached with 0.05% (w/v) trypsin-0.02% (w/v) EDTA (Irvine Scientific) in PBS and the levels of radioactivity in each well were determined in a liquid scintillation counter.

[1] = Table IV, 12 μM preincubation then 200-fold dilution, control 100

CCCCCCCCCCCCC/C=C/[C@@H](O)[C@H](CO)N(C)C [DMS, (4E)-N,N-dimethyl-D-erythro-sphingosine]
activity at 4.5 µM (neutrophils; Table I, 4.5 μM, control 100): 26 ± 25% | activity at 12 µM (neutrophils; [1]): 32 ± 19% | inhibition of HL60 cell binding (HL60 cells): inhibited strongly

CCCCCCCCCCCCC/C=C/[C@@H](O)[C@@H](N)CO [SPN, sphingosine]
activity at 4.5 µM (neutrophils): 14 ± 7% | activity at 12 µM (neutrophils): 42 ± 24% | inhibition of HL60 cell binding (HL60 cells): minimally inhibited

CCCCCCCCCCCCC/C=C/[C@@H](O)[C@H](CO)[N+](C)(C)C [TMS, N,N,N-trimethylsphingosine]
suppression of phagokinetic activity (neutrophils; 1.5 μM): suppressed significantly | suppression of phagokinetic activity (neutrophils; 4.5 μM): completely suppressed | neutrophil migration (phagokinetic) (neutrophils; Example 9): inhibited neutrophil migration | activity at 4.5 µM (neutrophils; Table I, 4.5 μM, control 100): 16 ± 18% | activity at 12 µM (neutrophils; [1]): 92 ± 34% | reversal of inhibitory effect on phagokinetic activity (neutrophils; medium replaced with TMS-free medium): reversed completely | inhibition of HL60 cell binding (HL60 cells): inhibited strongly

Calphostin C
Area Swept (neutrophils; Table I, 0.5 μM, control 100, 120 min): 39 ± 11%
